Data set [1] is described as follows: Plasma and colon concentrations after p.o. dosing (Protocols 1 and 2). It counts as in vivo, female C57BL/6 mice. The conditions noted are these: female, C57BL/6, mouse, po, mice, 25 mg/kg p.o. The method, then:
These protocols are described below under the heading In vivo Studies.
(§1) Three non-fasted female C57BL/6 mice were orally administered test compound at a dose of 25 mg/kg p.o. as a solution in 20% hydroxypropyl-beta-cyclodextrin (HPβCD) at a dose volume of 5 mL/kg. Blood samples were collected at 0.5, 2, and 4 h post dose via retro-orbital bleed or venipuncture of the dorsal metatarsal vein. Blood samples were collected into tubes containing anticoagulant (Heparin-Na) and placed on wet ice. The plasma fraction was separated by centrifugation and frozen at −20° C. for up to 4 h and −80° C. after 4 h unless analyzed shortly after sample collection. Colon samples were collected at 4 h post dose. From the beginning of the cecum, a 4-6 cm sample of the colon was dissected, cut open on the longitudinal axis, and the solid contents removed by flushing with 2 mL of saline. The colon was further washed by putting it in 5 mL of saline and shaken for 5 seconds. The colon sample was then patted dry, weighed, and homogenized as 1 part tissue (g) to 4 parts HPLC grade water (mL). Concentrations of the compound in plasma and colon homogenate were determined using a qualified liquid chromatography-triple quadrupole mass spectrometry (LC-MS/MS) method.
as §1, with “HPβCD” for “hydroxypropyl-beta-cyclodextrin (HPβCD)”, “or” for “or venipuncture of the”, “2 cm below” for “the beginning of”, “4” for “4-6”

Data set [2] deals with IL-2 pSTAT5 (JAK1/JAK3). Description: IL-2 pSTAT5 (JAK1/JAK3) cellular assay in PBMCs (AlphaLISA). The class given is cell-based. The conditions noted are these: PBMC, IL-2 5 ng/mL. The method, then:
For all compounds tested, there was measured inhibition of STAT phosphorylation with all three stimuli.
The AlphaLISA assay (based on Alpha Technology from PerkinElmer) was performed by first plating freshly thawed PBMCs (Biological Specialty Corporation) in 384-well plates at 30,000 cells per 4 μL per well in HBSS (Hanks' Balanced Salt Solution) containing 0.1% IgG (immunoglobulin G)-free, protease-free BSA (bovine serum albumin) (Jackson ImmunoResearch Cat. No. 001-000-161). The cells were then treated with 2 μL/well of compounds diluted in DMSO at half-log titrated concentrations, with a highest test concentration of 10 μM and 0.5% final DMSO concentration, for thirty minutes at 37° C. […] The cellular reactions were terminated by the addition of 2 μL/well of lysis buffer (PerkinElmer Cat. No. ALSU-PST5-A10K) followed by an incubation of five minutes at room temperature. […] Finally, the plates were read on a PerkinElmer EnVision for detection of the time-resolved fluorescence signal. The percentage of IL-2-dependent pSTAT5 inhibition was determined at the compound test concentrations; and for each compound, a dose curve was generated and the IC50 was calculated. Compound IC50 was calculated by nonlinear regression, sigmoidal dose response analysis of the half-log dilution titration curve of the compound concentration vs. Alpha signal. […]

Data set [3] concerns P-gp (MDR1). Put plainly: MDCK-MDR1 permeability assay. The class given is in vitro ADME. The conditions noted are these: dog. The method, then:
Permeability measurements were conducted according to the Cyprotex protocol using the MDCK-MDR1 cell line obtained from the NIH (Rockville, Md., USA). […] The cells in this assay form a cohesive sheet of a single cell layer filing the surface area of the culture dish, also known as a confluent monolayer, and on day four the test compound was added to the apical side of the membrane and the transport of the compound across the monolayer was monitored over a time period of 60 min.
Test compounds were dissolved in DMSO at a concentration of 10 mM. The dosing solutions were prepared by diluting test compound with assay buffer (Hanks Balanced Salt Solution), pH 7.4, at a final concentration of 5 μM. For assessment of apical to basolateral (“A-B”) permeability, buffer was removed from the apical compartment and replaced with test compound dosing solution with or without the permeability glycoprotein (“PgP”, “P-gP”, “Pgp” or “P-gp”) inhibitor elacridar (2 μM). For assessment of basolateral to apical (“B-A”) permeability, buffer was removed from the companion plate and replaced with test compound dosing solution. Incubations were carried out in duplicate at 37° C. in an atmosphere of 5% CO2 with a relative humidity of 95%. Each assay included the reference markers propranolol (high permeability) and prazosin (PgP substrate). After incubation for 60 minutes, apical and basolateral samples were diluted and test compounds quantified by LC/MS/MS using an 8-point calibration in the range 0.0039 to 3 μM with appropriate dilution of the samples (receiver dilution factor=1; donor and Co dilution factor=10). The permeability coefficient (Papp) for each compound was calculated from the following equation: Papp=(dQ/dt)/(C0×S), where dQ/dt is the rate of permeation of the drug across the cells, C0 is the donor compartment concentration at time zero, and S is the area of the cell monolayer.
Papp(A-B) gives an indication of permeation extent across the cells in this assay, which is envisaged to model the transcellular transport across Pgp-expressing cells, such as Pgp-expressing gastrointestinal tract cells.

SMILES strings stand for the structures. Where two headings read alike, the source gives them in different places.

On to `N#CC[C@H]1CC[C@H](n2c(-c3c[nH]cn3)nc3cnc4[nH]ccc4c32)CC1` [Ex. 2, 2-((1r,4r)-4-(2-(1H-Imidazol-4-yl)imidazo[4,5-d]pyrrolo[2,3-b]pyridin-1(6H)-yl)cyclohexyl)acetonitrile], for which the concentration at 4 h in data set [1] (colon, read-out: Colon Concentration After p.o. Dosing, Mean) worked out at 7600 ng/g; in data set [1] (plasma, read-out: Plasma Concentration After p.o. Dosing, Mean) it was 1.3 ng/mL. In data set [1] (plasma, Time = 0.5 h), this compound displayed a concentration at 0.5 h of 24.5 ng/mL. In data set [1] (plasma, Time = 2 h), this compound returned a concentration at 2 h of 4.2 ng/mL. Inhibition in data set [2] was half-maximal at 9 nM (IC50). The Papp A→B (in general, the apparent permeability from the apical to the basolateral side of a cell layer) at 60 min, 5 µM in data set [3] (MDCK-MDR1, pH 7.4, apical-to-basolateral, without elacridar, 5 μM, 60 min) came to 1.1 ×10⁻⁶ cm/s. Further, in data set [3] (MDCK-MDR1, pH 7.4, basolateral-to-apical, 5 μM, 60 min), the Papp B→A (in general, how fast a substance crosses the layer from the basolateral side) at 60 min, 5 µM amounted to 4.8 ×10⁻⁶ cm/s. For the same compound, the efflux ratio at 60 min, 5 µM in data set [3] (pH 7.4, MDCK-MDR1, 5 μM, read-out: Papp(B-A)/Papp(A-B) (efflux ratio)) stood at 4.4.

For the origin of these results see patent US11059823B2, “Small molecule inhibitors of the JAK family of kinases” (Janssen Pharmaceutica NV, priority 2016, dated 2021).
